Source: patent US8263603B2, “N3-substituted-N1-sulfonyl-5-fluoropyrimidinone derivatives” (Dow AgroSciences, LLC, priority 2010, dated 2012)

Tests used:
[1] = test system: Mycosphaerella graminicola; anamorph: Septoria tritici; Bayer code SEPTTR; assay: Fungicidal activity against leaf blotch of wheat, one-day protectant (1 DP); type: in vivo; conditions: Zymoseptoria tritici, 24 h, wheat plants (variety Yuma), rating of % disease control
Protocol: (§1) Evaluation of Fungicidal Activity: Leaf Blotch of Wheat (Mycosphaerella graminicola; anamorph: Septoria tritici; Bayer code […]) Wheat plants (variety Yuma) were grown from seed in a greenhouse in 50% mineral soil/50% soil-less Metro mix until the first leaf was fully emerged, with 7-10 seedlings per pot. These plants were inoculated with an aqueous spore suspension of Septoria tritici either prior to or after fungicide treatments. After inoculation the plants were kept in 100% relative humidity (one day in a dark dew chamber followed by two days in a lighted dew chamber) to permit spores to germinate and infect the leaf. The plants were then transferred to a greenhouse for disease to develop. The following table presents the activity of typical compounds of the present disclosure when evaluated in these experiments. The effectiveness of the test compounds in controlling disease was determined by assessing the severity of disease on treated plants, and then converting the severity to percent control based on the level of disease on untreated, inoculated plants. • In each case of Table II the rating scale is as follows: […]

[2] = test system: Mycosphaerella graminicola; anamorph: Septoria tritici; Bayer code SEPTTR; assay: Fungicidal activity against leaf blotch of wheat, three-day curative (3 DC); type: in vivo; conditions: Zymoseptoria tritici, 72 h, wheat plants (variety Yuma), rating of % disease control
Protocol: as §1

| Compound | pest or weed control at 100 ppm [1] | pest or weed control at 100 ppm [2] | melting point |
| --- | --- | --- | --- |
| CCn1c(=N)c(F)cn(S(=O)(=O)c2c(Cl)cccc2Cl)c1=O [Compound 9] | 0 to 25% | 76 to 100% | 182 to 185 °C |
| COc1ccc(S(=O)(=O)n2cc(F)c(=N)n(C)c2=O)cc1 [Compound 3] | 76 to 100% | 76 to 100% | 158 to 162 °C |
| Cn1c(=N)c(F)cn(S(=O)(=O)c2ccc(Cl)cc2)c1=O [Compound 4] | 76 to 100% | 76 to 100% | 147 to 150 °C |
| Cn1c(=N)c(F)cn(S(=O)(=O)c2cccs2)c1=O [Compound 2] | 76 to 100% | 76 to 100% | 136 to 139 °C |
| CCn1c(=N)c(F)cn(S(=O)(=O)c2ccc(Cl)cc2)c1=O [Compound 7] | 51 to 75% | 76 to 100% | 165 to 168 °C |
| CCn1c(=N)c(F)cn(S(=O)(=O)c2ccc(OC)cc2)c1=O [Compound 8] | 0 to 25% | 51 to 75% | 107 to 111 °C |
| CCn1c(=N)c(F)cn(S(=O)(=O)c2ccccc2)c1=O [Compound 6, 1-benzenesulfonyl-5-fluoro-4-imino-3-ethyl-3,4-dihydro-1H-pyrimidin-2-one] | 0 to 25% | 0 to 25% | 163 to 166 °C |
| COc1ccc(S(=O)(=O)n2cc(F)c(=N)n(Cc3ccccc3)c2=O)cc1 [Compound 5, 3-benzyl-5-fluoro-4-imino-1-(4-methoxyphenylsulfonyl)-3,4-dihydropyrimidin-2(1H)-one] | 0 to 25% | 0 to 25% |  |
| Cn1c(=N)c(F)cn(S(=O)(=O)c2ccccc2)c1=O [Compound 1, 1-Benzenesulfonyl-5-fluoro-4-imino-3-methyl-3,4-dihydro-1H-pyrimidin-2-one] | 76 to 100% | 76 to 100% | 144 °C |
